Measured values reported in paper PMC10987829 (iScience, 2024).
Values belong to the molecule of their own block, whether it stands above or below them.

How the values were obtained:
H2A/H2B dimers = H2A/H2B dimers (Xenopus laevis, UniProt P02281+P06897); assay: Protein thermal shift; type: binding; conditions: H2A/H2B 0.5 mg/mL, ligand 1.2:1 molar ratio, 50 mM Bis-Tris propane pH 7.4, 150 mM NaCl, 10X SYPRO Orange; apo H2A/H2B Tm 46.1 ± 0.2°C; three replicates
H3/H4 = conditions: cited from earlier work
[1] = target: Npm2 A2mockglu4 peptide (…), 'pseudo-glutamylated' (Xenopus laevis); assay: other fluorescence titration
mononucleosomes = assay: Disassembly of premade mononucleosomes; type: biochemical; conditions: salt-dialysis mononucleosomes, increasing chaperone

- change of H2A/H2B melting temperature (Tm) (H2A/H2B dimers): 6.7 °C
Molecule: DYDEEGEEADDEEGEEEADEDHDPDFDPK [Nap1 A3 (350–382)]

Molecule: Npm2 Tail (119–146): Npm2 C-terminal Tail domain peptide, residues 119–146, purified as previously described (AMEEDYSWAEEEDEGEEEEEEEEDPESP)
- fold lower affinity for H3/H4 than for H2A/H2B (H3/H4): 5 fold

- Kd [1]: 300 nM
Molecule: Xenopus laevis H2A/H2B heterodimer (from UniProt P06897;P02281) (complex)

B1: Nap1glu: TTLL4-treated (glutamylated) full-length Nap1 (protein)
chain: MANIDNKGQTELDQQDMEDVEDVEEEETGEDANSKARQLTAQMMQNPQVLAALQERLDDLVGTPTGYIESLPKVVKRRVNALKNLQVKCAQIEAKFYEEVHELERKYAALYQPLFDKRSDIINATYEPTEEECEWKVEEEDISGDLKEKAKLEEEKKDEEKEDPKGIPEFWLTVFKNVDLLSDMLQEHDEPILKHLKDIKVKFSDAGQPMSFTLEFYFEPNEFFTNEVLTKTYKMRSEPDESDPFSFDGPEIMGCTGCLIDWKKGKNVTLKTIKKKQKHKGRGTVRTVTKTVPNDSFFNFFTPPEVPENGELDDDAEAILTADFEIGHFLRERIIPRSVLYFTGEAIEDDDDDYDEEGEEADDEEGEEEADEDNDPDYEPKV
- disassembly of premade mononucleosomes (mononucleosomes): neither Nap1 nor Nap1glu were able to disassemble premade mononucleosomes
